In test [1] the target is T1, Serine/threonine-protein kinase Nek1 (Homo sapiens) (UniProt Q96PY6).
T1 sequence (whole entry): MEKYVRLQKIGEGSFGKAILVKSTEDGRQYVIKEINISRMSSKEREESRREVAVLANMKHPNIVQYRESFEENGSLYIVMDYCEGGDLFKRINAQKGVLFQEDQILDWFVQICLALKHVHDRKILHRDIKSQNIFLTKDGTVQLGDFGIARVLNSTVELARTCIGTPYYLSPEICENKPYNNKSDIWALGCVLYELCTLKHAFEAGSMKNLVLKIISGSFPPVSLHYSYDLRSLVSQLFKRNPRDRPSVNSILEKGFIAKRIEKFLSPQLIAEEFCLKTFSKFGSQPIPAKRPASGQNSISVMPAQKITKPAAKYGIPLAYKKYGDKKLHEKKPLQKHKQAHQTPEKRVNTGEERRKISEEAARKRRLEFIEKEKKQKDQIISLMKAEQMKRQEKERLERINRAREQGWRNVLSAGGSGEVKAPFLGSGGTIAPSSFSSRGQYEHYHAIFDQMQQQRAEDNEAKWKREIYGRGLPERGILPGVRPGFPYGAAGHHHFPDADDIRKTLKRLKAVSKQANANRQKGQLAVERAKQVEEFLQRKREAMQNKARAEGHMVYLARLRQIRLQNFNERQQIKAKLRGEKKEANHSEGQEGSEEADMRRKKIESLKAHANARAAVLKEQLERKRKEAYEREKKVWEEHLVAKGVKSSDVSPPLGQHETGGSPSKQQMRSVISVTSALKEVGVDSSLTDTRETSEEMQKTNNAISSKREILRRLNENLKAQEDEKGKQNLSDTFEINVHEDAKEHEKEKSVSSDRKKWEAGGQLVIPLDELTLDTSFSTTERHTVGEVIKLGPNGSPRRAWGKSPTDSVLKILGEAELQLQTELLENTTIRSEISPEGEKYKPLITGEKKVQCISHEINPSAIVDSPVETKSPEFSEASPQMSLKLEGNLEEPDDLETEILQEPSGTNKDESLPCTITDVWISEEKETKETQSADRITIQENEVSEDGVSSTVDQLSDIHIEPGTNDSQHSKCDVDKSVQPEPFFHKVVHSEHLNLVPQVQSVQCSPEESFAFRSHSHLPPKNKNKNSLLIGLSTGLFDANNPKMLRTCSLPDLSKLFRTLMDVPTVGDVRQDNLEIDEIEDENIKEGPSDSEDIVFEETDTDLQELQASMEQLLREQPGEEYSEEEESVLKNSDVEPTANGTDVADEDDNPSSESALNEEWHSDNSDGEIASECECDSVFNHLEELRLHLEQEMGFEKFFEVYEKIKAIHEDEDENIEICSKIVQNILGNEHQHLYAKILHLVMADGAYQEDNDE
Put plainly: Inhibition of NEK1 (unknown origin) at 10 uM after 120 mins P33 radiolabeled kinase activity assay.

In test [2] the target is T2, Tyrosine-protein kinase receptor TYRO3 (Homo sapiens) (UniProt Q06418).
T2 sequence (whole entry): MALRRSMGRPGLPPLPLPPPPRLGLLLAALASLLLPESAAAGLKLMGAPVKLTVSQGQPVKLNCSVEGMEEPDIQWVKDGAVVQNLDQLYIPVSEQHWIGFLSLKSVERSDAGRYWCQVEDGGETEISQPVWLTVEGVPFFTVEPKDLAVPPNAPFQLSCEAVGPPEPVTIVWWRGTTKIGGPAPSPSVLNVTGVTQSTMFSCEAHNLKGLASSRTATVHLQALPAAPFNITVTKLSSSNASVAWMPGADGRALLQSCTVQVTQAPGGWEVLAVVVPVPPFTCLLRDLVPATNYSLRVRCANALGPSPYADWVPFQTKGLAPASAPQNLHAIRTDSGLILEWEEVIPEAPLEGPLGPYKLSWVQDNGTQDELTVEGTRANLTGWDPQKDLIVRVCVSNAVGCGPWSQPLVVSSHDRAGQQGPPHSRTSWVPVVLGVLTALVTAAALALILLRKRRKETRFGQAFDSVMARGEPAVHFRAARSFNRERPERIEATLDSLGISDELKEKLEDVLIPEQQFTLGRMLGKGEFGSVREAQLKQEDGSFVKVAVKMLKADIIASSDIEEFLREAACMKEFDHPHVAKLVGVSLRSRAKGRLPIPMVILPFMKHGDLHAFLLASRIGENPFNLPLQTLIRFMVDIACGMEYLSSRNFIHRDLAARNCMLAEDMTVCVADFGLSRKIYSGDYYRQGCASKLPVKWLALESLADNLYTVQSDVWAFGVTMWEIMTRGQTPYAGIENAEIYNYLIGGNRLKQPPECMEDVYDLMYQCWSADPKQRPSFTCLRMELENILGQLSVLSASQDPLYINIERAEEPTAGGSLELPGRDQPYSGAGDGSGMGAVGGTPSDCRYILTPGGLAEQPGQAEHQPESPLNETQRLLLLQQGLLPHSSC
Put plainly: Inhibition of TYRO3 (unknown origin) at 10 uM after 120 mins P33 radiolabeled kinase activity assay.

Test [3] addresses T3, Serine/threonine-protein kinase TAO3 (Homo sapiens) (UniProt Q9H2K8).
T3 sequence (whole entry): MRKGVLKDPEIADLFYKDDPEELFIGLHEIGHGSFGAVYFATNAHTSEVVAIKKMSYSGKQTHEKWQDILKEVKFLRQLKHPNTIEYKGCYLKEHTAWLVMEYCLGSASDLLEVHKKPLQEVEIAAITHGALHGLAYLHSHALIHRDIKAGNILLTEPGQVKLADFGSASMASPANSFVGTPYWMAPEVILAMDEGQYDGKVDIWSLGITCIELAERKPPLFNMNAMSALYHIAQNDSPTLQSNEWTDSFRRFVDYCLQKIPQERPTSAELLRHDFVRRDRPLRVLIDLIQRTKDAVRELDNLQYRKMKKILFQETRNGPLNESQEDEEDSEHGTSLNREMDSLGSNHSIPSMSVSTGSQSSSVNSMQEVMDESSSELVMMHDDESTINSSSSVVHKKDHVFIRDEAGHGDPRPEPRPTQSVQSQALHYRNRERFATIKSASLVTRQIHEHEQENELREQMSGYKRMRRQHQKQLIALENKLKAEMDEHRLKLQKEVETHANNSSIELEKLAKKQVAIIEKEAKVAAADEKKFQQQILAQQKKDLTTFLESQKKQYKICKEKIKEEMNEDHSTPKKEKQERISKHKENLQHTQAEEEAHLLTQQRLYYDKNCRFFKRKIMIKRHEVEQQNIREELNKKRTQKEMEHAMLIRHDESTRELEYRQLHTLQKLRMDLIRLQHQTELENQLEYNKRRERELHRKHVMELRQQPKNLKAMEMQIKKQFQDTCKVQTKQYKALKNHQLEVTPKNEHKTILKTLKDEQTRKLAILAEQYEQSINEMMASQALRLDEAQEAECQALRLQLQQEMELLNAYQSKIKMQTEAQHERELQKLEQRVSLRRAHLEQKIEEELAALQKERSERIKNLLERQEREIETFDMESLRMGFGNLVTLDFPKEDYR
Put plainly: Inhibition of TAOK3 (unknown origin) at 10 uM after 120 mins P33 radiolabeled kinase activity assay.

Usually inhibition stands for the relative decrease from the control value, in per cent. Regarding `CS(=O)(=O)c1cccc(Nc2nccc(-c3sc(N4CCOCC4)nc3-c3cccc(NS(=O)(=O)c4c(F)cccc4F)c3)n2)c1`, the inhibition amounted to 15.4% in test [1], 79.5% in test [2] and 26.7% in test [3].
For `CC(C)(C)c1cc(NC(=O)Nc2ccc(Oc3ccncc3)cc2)no1` the same measures were 12.5%, 60.7% and 51%.
The like results for `COCCNC(=O)c1ccc2c(c1)nc(-c1cnc(-c3ccc(Cl)cc3)[nH]1)n2CCOC` were, in that order, 2.5%, 12.8% and -0.26%.

(Values after ChEMBL document CHEMBL3627608, “Crystal structures of human RIP2 kinase catalytic domain complexed with ATP-competitive inhibitors: Foundations for understanding inhibitor selectivity” (Bioorg Med Chem, 2015).)
